Reference: US9687432B2, “Antimicrobial bispyridine amine compositions and uses” (LONZA INC., priority 2012, dated 2017)
Structures can show the parent of a compound that is named as a salt. Values belong to the molecule of their own block, whether it stands above or below them.

How the values were obtained:
[1] = tested on: Staphylococcus aureus (6538); experiment: Minimum Inhibitory Concentration (MIC) test, 96-well microtiter plate; type: cell-based; conditions: 48 hrs at 36° C., visual inspection
Description: (§1) MICs for the organisms were determined using a standard 96-well microtiter plate assay in Tryptic Soy Broth (TSB) or Sabouraud Dextrose Broth (SDB). A stock solution (2500 ppm) of Octenidine distearate was prepared in methanol and stock solutions (2500 ppm) of Octenidine dihydrochloride and PHMB were prepared in absolute ethanol. […] Fungal inocula were grown up on Sabouraud Dextrose Agar plates (yeast) or Potato Dextrose Agar plates (mold) and mold spores and yeast cells were adjusted to approximately 100,000 per milliliter in Sabouraud Dextrose Broth (pH 5.6). Bacterial and fungal cultures were used to inoculate the serially diluted antimicrobials in the 96 well microplate and the plate was then incubated for 48 hrs at 36° C. The lowest concentration of test compound inhibiting growth at 48 hrs. (as determined by visual inspection) was recorded as the Minimum Inhibitory Concentration (MIC)

[2] = tested on: Pseudomonas aeruginosa (9027); experiment: as above; type: cell-based; conditions: 48 hrs at 36° C., visual inspection
Description: as §1

[3] = tested on: Gliocladium virens (9645); experiment: as above; type: cell-based; conditions: 48 hrs at 36° C., Sabouraud Dextrose Broth
Description: as §1

[4] = tested on: Enterococcus hirae (8043); experiment: as above; type: cell-based; conditions: 48 hrs at 36° C., visual inspection
Description: as §1

[5] = tested on: Bacillus subtilus (6633); experiment: as above; type: cell-based; conditions: 48 hrs at 36° C., visual inspection
Description: as §1

[6] = tested on: Enterobacter gergoviae (33028); experiment: as above; type: cell-based; conditions: 48 hrs at 36° C., visual inspection
Description: as §1

[7] = tested on: LB penicillium sp.; experiment: as above; type: cell-based; conditions: 48 hrs at 36° C., Sabouraud Dextrose Broth
Description: as §1

[8] = tested on: Klebsiella pneumoniae (4352); experiment: as above; type: cell-based; conditions: 48 hrs at 36° C., visual inspection
Description: as §1

[9] = tested on: Escherichia coli (10536); experiment: as above; type: cell-based; conditions: 48 hrs at 36° C., visual inspection
Description: as §1

[10] = tested on: Pseudomonas aeruginosa (15442); experiment: as above; type: cell-based; conditions: 48 hrs at 36° C., visual inspection
Description: as §1

[11] = tested on: Aureobasidium pullulans (9348); experiment: as above; type: cell-based; conditions: 48 hrs at 36° C., Sabouraud Dextrose Broth
Description: as §1

[12] = tested on: Paecilomyces sp.; experiment: as above; type: cell-based; conditions: 48 hrs at 36° C., Sabouraud Dextrose Broth
Description: as §1

[13] = tested on: Candida albicans (10231); experiment: as above; type: cell-based; conditions: 48 hrs at 36° C., Sabouraud Dextrose Broth
Description: as §1

[14] = tested on: Aspergillus niger (16404); experiment: as above; type: cell-based; conditions: 48 hrs at 36° C., Sabouraud Dextrose Broth
Description: as §1

[15] = tested on: Penicillium pinophilium (11797); experiment: as above; type: cell-based; conditions: 48 hrs at 36° C., Sabouraud Dextrose Broth
Description: as §1

[16] = tested on: mixed pool of bacteria (Staphylococcus epidermis, Corynebacterium minutissimum, Staphylococcus haemolyticus, Corynebacterium xerosis, Micrococcus luteus) on …; experiment: Control of growth of skin microorganisms on pig skin; type: cell-based, skin bacteria on pig skin; conditions: 200 ppm in ethanol, 100 μl on pig skin, mixed bacterial pool, 35° C., 8 hour time period
Description: To further investigate the potential of the bispyridine amine compounds of the present invention for use as antimicrobial active ingredients in personal care products and cosmetics, the efficacy of octenidine distearate in controlling growth of skin microorganisms compared to Cosmocil® S was evaluated using different skin mimics. Testing was performed using pig skin. Although alternatives, such as VITRO-SKIN®, offered a less variable test matrix, it was decided that testing on pig skin was a better model for this application, as the pig skin allowed for actual growth of bacteria on the surface, not merely the survival of bacteria on the surface, providing more representative user skin conditions. The typical skin microorganisms Staphylococcus epidermis (ATCC 12228), Corynebacterium minutissimum (ATCC 23348), Staphylococcus haemolyticus (ATCC 29970), Corynebacterium xerosis (ATCC 373), and Micrococcus luteus (ATCC 4698), were grown in Tryptic Soy Broth (TSB) at 35-37° C. for approximately 24 hours. Each bacterial suspension was diluted 1:50 in TSB and then inoculum was prepared by mixing equal volume of each bacterial suspension. The final inoculum was plated in TSA to get an accurate count and used as a mixed pool of bacteria. […] Plates were incubated at 35-37° C. for 48 hours before the colonies were counted, and the mean values calculated.

[17] = tested on: Corynebacterium xerosis (373); experiment: MIC test against skin microorganisms; type: cell-based; conditions: 48 hrs at 36° C., TSB first set, BHI second set
Description: (§2) MICs for the organisms were determined using a standard 96-well microtiter plate assay in Trypic Soy Broth (TSB). […] Bacteria were grown in Tryptic Soy Broth or Brain Heart Infusion (E. hirae) for 24 hrs and were adjusted to one million cells per milliliter in same type of broth. Following incubation (48 hrs at 36° C.), the lowest concentration of test compound inhibiting growth was recorded as the Minimum Inhibitory Concentration (MIC). The actives were serially diluted and tested at final concentrations ranging from 156.3-0.61 ppm. MIC was run for two different sets.
(§3) Bacteria were grown overnight in Tryptic Soy Brother (TSB) or Brain Heart Infusion (BHI) and were adjusted to approximately 1×10^6 colony forming units per ml (cfu/ml) and used to inoculate the wells. Final bacterial concentration in the test wells was 5×10^5 cfu/ml. For Corynebacterium spp, TSB was used for the first set and BHI for the second set. Inoculated microtiter plates were incubated at 36° C. for 48 hours.
(§4) The lowest concentration of test compound inhibiting growth was recorded as the minimum inhibitory concentration.

[18] = tested on: Staphylococcus epidermidis (12228); experiment: MIC test against skin microorganisms; type: cell-based; conditions: 48 hrs at 36° C., two different sets
Description: as §2, §3, §4

[19] = tested on: Staphylococcus haemolyticus (29970); experiment: MIC test against skin microorganisms; type: cell-based; conditions: 48 hrs at 36° C., two different sets
Description: as §2, §3, §4

[20] = tested on: Bacillus licheniformis (14580); experiment: MIC test against skin microorganisms; type: cell-based; conditions: 48 hrs at 36° C., two different sets
Description: as §2, §3, §4

[21] = tested on: Corynebacterium minutissimum (23348); experiment: MIC test against skin microorganisms; type: cell-based; conditions: 48 hrs at 36° C., TSB first set, BHI second set
Description: as §2, §3, §4

MIC [1]: 0.61 µg/mL | MIC [2]: 1.22 µg/mL | MIC ([3]; Trichoderma virens): < 0.31 µg/mL | MIC [4]: 0.61 µg/mL | MIC [5]: 0.61 µg/mL | MIC ([6]; Pluralibacter gergoviae): 1.22 µg/mL | MIC [7]: 0.61 µg/mL | MIC [8]: 0.61 µg/mL | MIC [9]: 0.61 µg/mL | MIC [10]: 1.22 µg/mL | MIC [11]: 0.61 µg/mL | MIC [12]: 78.1 µg/mL | MIC [13]: 0.31 µg/mL | MIC [14]: 1.22 µg/mL | MIC [15]: < 0.31 µg/mL
Structure (SMILES): CCCCCCCCN=c1ccn(CCCCCCCCCCn2ccc(=NCCCCCCCC)cc2)cc1 [Octenidine HCl, Octenidine dihydrochloride]

Minimum Inhibitory Concentration (MIC) [1]: 2.44 ppm | Minimum Inhibitory Concentration (MIC) [2]: 4.88 ppm | Minimum Inhibitory Concentration (MIC) [3]: 2.44 ppm | Minimum Inhibitory Concentration (MIC) [4]: 4.88 ppm | Minimum Inhibitory Concentration (MIC) [5]: 1.22 ppm | Minimum Inhibitory Concentration (MIC) [6]: 4.88 ppm | Minimum Inhibitory Concentration (MIC) [7]: 2.44 ppm | Minimum Inhibitory Concentration (MIC) [8]: 2.44 ppm | Minimum Inhibitory Concentration (MIC) [9]: 2.44 ppm | Minimum Inhibitory Concentration (MIC) [10]: 19.53 ppm | Minimum Inhibitory Concentration (MIC) [11]: 1.22 ppm | Minimum Inhibitory Concentration (MIC) [12]: 156.25 ppm | Minimum Inhibitory Concentration (MIC) [13]: 0.61 ppm | Minimum Inhibitory Concentration (MIC) [14]: 9.77 ppm | Minimum Inhibitory Concentration (MIC) [15]: 2.44 ppm | MIC (ppm) [17]: 39.06 ppm | MIC (ppm) [18]: 4.88-9.76 ppm | MIC (ppm) [20]: 9.76-19.53 ppm | MIC (ppm) [21]: 2.44-39.06 ppm
Structure (SMILES): CCCCCCCCCCCCCCCCCC(=O)O.CCCCCCCCCCCCCCCCCC(=O)O.CCCCCCCCN=c1ccn(CCCCCCCCCCn2ccc(=NCCCCCCCC)cc2)cc1 [Octenidine distearate, octenidine distearate]
efficacy in controlling growth of skin microorganisms (CFU/cm^2 of skin, FIG. 1) [16]: equally as effective as Cosmocil® S | MIC (ppm) [19]: 4.88-9.76 ppm
